Data on two substances can be found in patent US20230220047A1, “PEPTIDES FOR TREATMENT OF SEPSIS AND CANCER” (NORWEGIAN UNIVERSITY OF SCIENCE AND TECHNOLOGY (NTNU), priority 2020, published 2023).

“Also recorded” adds a separate entry of the source.

For experiment [1], the system named is JJN-3 multiple myeloma cells. The format is cell-based, human. As to conditions: JJN-3, 4 μM peptide. An excerpt: Minor effects on the proliferation of the IH-1 and RPMI 8226 cell lines are seen. […] The number of viable cells was detected based on quantitation of ATP by luminescent signal in correlation to a standard curve prepared for each cell line. Results are based on 3-5 biological replicates for each condition, error bars show standard deviation of mean.
(§1) Multiple myeloma cells JJN-3 (DSMZ (Germany) no. ACC 541), ANBL-6 (Cellosaurus accession number CVCL_5425, obtained from Dr Diane Jelinek, Mayo Clinic, Rochester, Minn.), INA-6 (Cellosaurus accession number CVCL_5209, obtained from Dr M. Gramatzki, University of Erlangen-Nurnberg, Erlangen, Germany), RPMI-8226 (ATCC CCL-155), and IH-1 (Cellosaurus accession number CVCL_WZ44, established from the pleural effusion of a myeloma patient by Myeloma research group, IKOM, NTNU, Trondheim, Norway) were grown in RPMI-1640 (Sigma-Aldrich Norway, Oslo, Norway) supplemented with 100 nM penicillin/streptomycin and 10% FCS, and for ANBL-6, IH-1 and INA-6 cells 2 ng/ml recombinant IL-6 (Gibco, Thermo Fisher Scientific, Waltham, Mass., USA). Murine multiple myeloma Vk*MYC cells were obtained from M.D. Leif Bergsagel (Mayo Clinic, Richester, Minn., USA) and cultured in RPMI-1640 supplemented with 2% human serum (B^+, The blood bank, St Olav's Hospital, Trondheim, Norway), 100 nM penicillin/streptomycin, L-Glutamine (2 mM) and recombinant IL-6 (1 ng/ml). HEK293T (ATCC CRL-3216) were cultured in DMEM with 10% FCS. THP-1 TRAM knockout (KO) and TLR4 KO cell lines, and matching lentivirally transduced control cell lines, were differentiated in the same way as wild type (WT) THP-1. TRAM KO THP-1 cell line is described in Yurchenko et al. (supra).
To evaluate the potential impact of the P7 peptide on proliferation of tumour cells of lymphoid origin, we performed a CellTiter-Glo Luminescent Cell Viability Assay to address proliferation of several multiple myeloma (MM) cell lines. […]

Experiment [2] concerns ANBL-6 multiple myeloma cells. The experiment in a line: CellTiter-Glo cell viability assay, ANBL-6. The format is cell-based. The method, then: Minor effects on the proliferation of the IH-1 and RPMI 8226 cell lines are seen. Cells were seeded at the level shown (left-hand bar of each set) then incubated in medium containing water, 10 μM penetratin or 10 μM P7-A4-Pen for 48 hr (except for INA-6 cells, which were incubated with 12.5 μM penetratin or 12.5 μM P7-A4-Pen). The number of viable cells was detected based on quantitation of ATP by luminescent signal in correlation to a standard curve prepared for each cell line. Results are based on 3-5 biological replicates for each condition, error bars show standard deviation of mean.
Cells were seeded and then incubated in growth medium alone or supplemented with water, DMSO, 15 μM penetratin or 15 μM investigational peptide. The growth medium only and H2O—, DMSO- and penetratin-supplemented cultures constituted controls.
The solid horizontal lines show the amount of cells originally seeded. In (A) ANBL-6 cells were seeded at a level of 10,000 cells/well, then incubated in medium supplemented with water, the control peptide C3A-Pen, P7-Pen, P7-A4-Pen, P7-N4-Pen or P7-K2-Pen for 48 hours. The peptides were included at concentrations of 5, 10, 12.5, 15, 20 or 30 μM. Cells were counted at 48 hours. In (B), ANBL-6 cells were seeded at a level of 5000 cells/well, then incubated in medium supplemented with water, P6-Pen, P-P6-Pen, P7-D4-Pen or P7-A4-Pen for 48 hours. Peptides were included at concentrations of 5, 10 or 20 μM. Cells were counted at 48 hours. […] Results are based on 3 biological replicates, error bars show standard deviation of mean.
as §1
To evaluate the potential impact of the P7 peptide on proliferation of tumour cells of lymphoid origin, we performed a CellTiter-Glo Luminescent Cell Viability Assay to address proliferation of several multiple myeloma (MM) cell lines. For the assay, cells were incubated for 48 h in respective media containing either solvent (water), 10 μM control peptide (Pen) or the SLAMF1-derived peptide P7-A4-Pen for 48 h (FIG. 32) (with the exception of the INA-6 cells which were incubated with 12.5 μM control peptide or P7-A4-Pen). […] This effect could be mediated by P7-A4-Pen-induced inhibition of signalling pathways that are crucial for driving proliferation and/or survival of MM tumour cells.
(ATP-based viability assays read luminescence as a measure of living cells.)

In a further experiment the test system is THP-1 cells. Put plainly: Viability of acute myeloid leukaemia cell line THP-1. Type of experiment: cell-based, human. As to conditions: 5-30 μM, 48 h. The method, then:
THP-1 cells were seeded in medium at 10,000 cells/well, as indicated by the dotted line. Cells were incubated for 48 hours in medium supplemented with water, C3A-Pen, P7-Pen, P7-A4-Pen or P7-N4-Pen. The peptides were included at concentrations ranging from 5-30 μM. At 48 hours cells were counted. […] The results with other peptides were less clear-cut. Results are based on 3 biological replicates, error bars show standard deviation of mean.
(§2) The peptides were tested against the SW480 cell line in the presence and absence of LPS.

A further experiment concerns Jurkat cells. The experiment in a line: Proliferation of Jurkat T cell leukaemia cells. Type of experiment: cell-based, human. As to conditions: 15 μM or 20 μM, 48 h. The method, then:
Jurkat cells were seeded at 5000 cells/well (as indicated by dotted line) and incubated in medium supplemented with water, penetratin, P7-Pen or P7-N4-Pen. Peptides were included at 15 μM (A) or 20 μM (B). Cells were incubated for 48 hours then counted. […] Results are based on 3 biological replicates, error bars show standard deviation of mean.
(§3) SW480 (ATCC CCL-228) and Jurkat (ATCC Clone E6-1; TIB-152) cells were cultured in RPMI 1640 (Sigma-Aldrich, Schnelldorf, Germany) supplemented with 10% heat-inactivated FCS, penicillin/streptomycin (Life Technologies) and 20 mM L-Glutamine. THP-1 cells (ATCC TIB-202) were cultured in RPMI-1640 (high-glucose, ATCC) supplemented with 10% heat inactivated foetal calf serum (FCS), 100 nM penicillin/streptomycin and 5 μM β-mercaptoethanol (Sigma). THP-1 cells were differentiated with 60 ng/ml phorbol 12-myristate 13-acetate (PMA, Sigma) for 72 h, followed by 24 or 48 h in medium without PMA.
as §2

The next experiment relates to SW480 cells. The experiment in a line: Proliferation of SW480 colon cancer cells. The format is cell-based, human. As to conditions: 15 μM, 48 h, with or without LPS 100 ng/ml. The method, then: SW480 cells were seeded and incubated in medium alone or supplemented with water, 15 μM penetratin, 15 μM P7-Pen or 15 μM P7-N4-Pen. Under each condition cells were incubated both without LPS and with 100 ng/ml LPS. Cells were incubated for 48 hours then counted. […] The presence of LPS made no difference to the effect of the peptides on proliferation. Results are based on 3 biological replicates, error bars show standard deviation of mean.
as §3, §2

Experiment [3] concerns primary Vk*MYC multiple myeloma cells. Put plainly: Primary Vk*MYC multiple myeloma cells. The format is cell-based, mouse. As to conditions: 7.5 or 15 μM, 48 h. The method, then: Isolated primary cells were seeded then incubated for 48 hours in growth medium supplemented with water, penetratin, P7-Pen, P7-A4-Pen or P7-N4-Pen, then counted. Peptides were included at concentrations of 7.5 or 15 μM. […] Results are based on 3 biological replicates, error bars show standard deviation of mean.
as §1
Primary multiple myeloma cells were isolated from Vk*Myc mice and provided by the Multiple Myeloma Research Group, IKOM, NTNU. The peptides P7-Pen, P7-N4-Pen and P7-A4-Pen were applied to the cultured primary cells and effect of the peptides on cell growth analysed as previously.

The next experiment addresses T1, SLAMF1-TRAM interaction (Homo sapiens, UniProt Q86XR7).
T1 construct: expressed in transfected cells; host or cells: HEK-293T
The experiment in a line: Co-precipitation of SLAMF1 and TRAM^Flag in the presence of ECFP-tagged peptides. Type of experiment: binding. As to conditions: N-terminal ECFP-tagged peptides, HEK-293T lysates, anti-Flag IP. The text has this: (A) Western blot analysis of SLAMF1 and TRAM^Flag co-precipitated in the presence of CFP-tagged peptides. TRAM^Flag was precipitated from cell lysates on agarose beads and distributed across 15 tubes. […] Unbound proteins/peptides were removed by a washing step, and pecipitates analysed by WB (anti-Flag IPs). Reduced SLAMF1 binding to TRAM indicates inhibition of the TRAM/SLAMF1 interaction by the peptide. (B) Sequences of the peptides that were expressed as ECFP-tagged proteins (N-terminal ECFP). Peptides 4 and 5 are not shown and were not pursued.
HEK293T cells expressing Flag-tagged proteins were lysed using 1×lysis buffer (150 mM NaCl, 50 mM TrisHCl (pH 8.0), 1 mM EDTA, 1% NP40), supplemented with EDTA-free Complete Mini protease Inhibitor Cocktail Tablets and PhosSTOP phosphatase inhibitor cocktail from Roche, 50 mM NaF and 2 mM […] (Sigma). IPs were carried out by rotation of cell lysates at 4° C. for 2 h with anti-flag (M2) agarose (Sigma). Beads were washed 5 times with lysis buffer and heated for 5 min with 1×NuPAGE® LDS Sample Buffer (Thermo Fisher Scientific) before analysis of precipitates by Western blotting. […]
Inhibition of the TRAM-SLAMF1 interaction using SLAMF1-derived peptides was tested. For the first line of experiments, SLAMF1-derived peptides were co-expressed as N-terminal ECFP-tagged proteins together with SLAMF1 and TRAM^FLAG constructs in HEK-293T cells.

T1 sequence (Q86XR7 whole entry): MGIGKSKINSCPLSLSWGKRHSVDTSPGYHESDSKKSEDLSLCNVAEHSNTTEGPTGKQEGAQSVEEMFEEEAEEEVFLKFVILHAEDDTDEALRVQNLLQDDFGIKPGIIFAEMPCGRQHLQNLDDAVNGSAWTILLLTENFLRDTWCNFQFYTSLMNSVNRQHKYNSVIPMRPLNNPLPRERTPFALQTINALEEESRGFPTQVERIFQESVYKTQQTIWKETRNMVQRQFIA

Consider “Ac-ITVNASVTLTGRQIKIWFQNRRMKWKK-NH2 [Peptide P7-N4-Pen]”, for which the “combination effect with melphalan at low melphalan concentrations” value in experiment [1] is “synergistic effect”. The “effect on proliferation of ANBL-6 cells” value in experiment [2] (15 μM) is reported as “anti-proliferative effect”. For the same substance, in experiment [2] (5, 10, 12.5, 15, 20 and 30 μM or 5, 10 and 20 μM, 48 h), the “anti-proliferative activity over a concentration series” value was “clear concentration-dependent effect”. For the same substance, the “effect on THP-1 cell number” value in the experiment on THP-1 cells was “clear dose-dependent cytotoxic effect; also recorded: anti-proliferative effect”. Moreover, in the experiment on Jurkat cells, the “effect on proliferation of Jurkat cells” value was “modest but clear anti-proliferative effect”. Further, in the experiment on SW480 cells, the “effect on proliferation of SW480 cells” value is “a degree of anti-proliferative effect”. The “effect on primary multiple myeloma cells” value in experiment [3] was “strong cytotoxic effect”.
On to “P6: SEQ ID NO: 2; amino acid sequence of SLAMF1 positions 324-333 (ITVYASVTLP; listed as Homo sapiens) [Peptide P6]”, for which the “inhibitory effect on SLAMF1-TRAM co-precipitation” value in the experiment with SLAMF1-TRAM interaction was “highest efficacy”. In addition, the “anti-proliferative activity at the highest tested concentration” value in experiment [2] (20 μM, 48 h) is recorded as “moderate anti-proliferative”.
